Assay results published in US11459296B2, “Antibacterial compounds” (INFEX Therapeutics Limited, priority 2018, dated 2022).
Structures can show the parent of a compound that is named as a salt.

Assays:
[1] = test system: E. coli ATCCBAA-2452 NDM-1; test: Meropenem combination MIC, broth microdilution; format: cell-based; details: meropenem only (baseline)
Protocol: (§1) MICs were determined by exposing bacteria to serial dilutions of antibacterial agents in MHB-II (cation-adjusted Mueller-Hinton Broth pH 7.4) according to Clinical and Laboratory Standards Institute (CLSI) broth microdilution guidelines (Cockerill et al., 2012).
(§2) Combination MIC were performed as described for MIC determinations with the addition of 4 mg/L test article to MHB-II.

A. baumannii SG698 NDM-1 [2] = test: Meropenem combination MIC, broth microdilution; format: cell-based; details: meropenem only (baseline)
Protocol: as §1, §2

[3] = test system: K. pneumoniae NCTC13439 VIM-1; test: Meropenem combination MIC, broth microdilution; format: cell-based; details: meropenem only (baseline)
Protocol: as §1, §2

[4] = test system: K. pneumoniae ATCC BAA2146 NDM-1; test: Meropenem combination MIC, broth microdilution; format: cell-based; details: meropenem only (baseline)
Protocol: as §1, §2

[5] = test system: K. pneumoniae NCTC13440 VIM-1; test: Meropenem combination MIC, broth microdilution; format: cell-based; details: meropenem only (baseline)
Protocol: as §1, §2

E. coli NCTC13476 IMP [6] = test: Meropenem combination MIC, broth microdilution; format: cell-based; details: meropenem only (baseline)
Protocol: as §1, §2

[7] = test system: E. coli ATCCBAA-2452 NDM-1; test: Imipenem combination MIC, broth microdilution; format: cell-based; details: imipenem only (baseline)
Protocol: as §1, §2
(§3) Compounds of the invention were also tested in combination with imipenem.

A. baumannii SG698 NDM-1 [8] = test: Imipenem combination MIC, broth microdilution; format: cell-based; details: imipenem only (baseline)
Protocol: as §1, §2, §3

[9] = test system: K. pneumoniae ATCC BAA2146 NDM-1; test: Imipenem combination MIC, broth microdilution; format: cell-based; details: imipenem only (baseline)
Protocol: as §1, §2, §3

[10] = test system: K. pneumoniae NCTC13440 VIM-1; test: Imipenem combination MIC, broth microdilution; format: cell-based; details: imipenem only (baseline)
Protocol: as §1, §2, §3

E. coli NCTC13476 IMP [11] = test: Imipenem combination MIC, broth microdilution; format: cell-based; details: imipenem only (baseline)
Protocol: as §1, §2, §3

[12] = Cytotoxicity Assay (CellTiter-Glo); format: cell-based; details: human, Hep G2 cells (ATCC HB-8065); 24 h exposure, cell viability; read-out: HepG2 CC50
Protocol: Cytotoxicity was evaluated in human Hep G2 cells (ATCC HB-8065) seeded at a density of 2×10^5 cells per well and incubated for 24 h at 37° C., 5% CO2. Cells were exposed to a doubling dilution series of test article. After 24 h exposure, the viability of the cells was determined using CellTiter-Glo® (Promega, Wis., USA) according to the manufacturer's instructions. Results are reported as the concentration of test article required to reduce cell viability by 50% (CC50).

NDM-1 = NDM-1 (Klebsiella pneumoniae, UniProt C7C422); test: metallo-β-lactamase inhibition assay (nitrocefin); format: biochemical; details: 1.5 nM NDM-1, 100 μM nitrocefin, 37° C., pH 7.5
Protocol: Compounds of the invention were tested in a metallo-β-lactamase inhibition assay to investigate mechanism of action of the compounds. Results are reported as the concentration of test article required to inhibit enzyme activity by 50% (IC50).
Inhibition of metallo-β-lactamase enzyme function was performed at 37° C. in buffer at pH 7.5 (50 mM HEPES, 150 mM NaCl, 0.1 mM ZnSO4, 20 μg/mL PEG4000), containing 1.5 nM NDM-1, 100 μM nitrocefin, and a range of concentrations of compound. Absorbance at 490 nm was measured using a BMG LABTECH FLUOstar Omega microplate reader every minute for 30 minutes. IC50S were determined from the average increase in OD per minute versus the Log 10 concentration of compound using GraphPad Prism.

NDM-1, sequence (C7C422 whole entry, looked up, species assumed): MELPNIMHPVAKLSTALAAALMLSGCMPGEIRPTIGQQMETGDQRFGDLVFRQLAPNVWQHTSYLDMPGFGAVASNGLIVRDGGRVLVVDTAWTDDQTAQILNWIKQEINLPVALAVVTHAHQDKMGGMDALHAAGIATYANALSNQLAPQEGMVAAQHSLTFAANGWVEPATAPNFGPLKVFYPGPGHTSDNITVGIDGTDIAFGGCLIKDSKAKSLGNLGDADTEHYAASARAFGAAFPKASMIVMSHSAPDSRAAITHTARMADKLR

Structure (SMILES)	IC50 (NDM-1) [nM]	CC50 at 24 h [12] [µg/mL]	other results
C[C@@H](O)[C@H]1C(=O)N2C(C(=O)O)=C(S[C@@H]3CN[C@H](C(=O)N(C)C)C3)[C@H](C)[C@H]12 [Meropenem, meropenem]	–	–	Meropenem MIC (μg/mL) I E. coli ATCCBAA-2452 NDM-1 [1]: 1 µg/mL; Meropenem MIC (μg/mL) IV A. baumannii SG698 NDM-1 (A. baumannii SG698 NDM-1 [2]): 8 µg/mL; Meropenem MIC (μg/mL) VII K. pneumoniae NCTC13439 VIM-1 [3]: 0.5 µg/mL; Meropenem MIC (μg/mL) III K. pneumoniae ATCC BAA2146 NDM-1 [4]: 16 µg/mL; Meropenem MIC (μg/mL) V K. pneumoniae NCTC13440 VIM-1 [5]: 1 µg/mL; Meropenem MIC (μg/mL) II E. coli NCTC13476 IMP (E. coli NCTC13476 IMP [6]): 4 µg/mL
C[C@@H](O)[C@H]1C(=O)N2C(C(=O)O)=C(SCCN=CN)C[C@H]12 [Imipenem, imipenem]	–	–	Imipenem MIC I E. coli ATCCBAA-2452 NDM-1 [7]: D (D≤10); Imipenem MIC IV A. baumannii SG698 NDM-1 (A. baumannii SG698 NDM-1 [8]): F (F≤80); Imipenem MIC III K. pneumoniae ATCC BAA2146 NDM-1 [9]: E (E≤40); Imipenem MIC V K. pneumoniae NCTC13440 VIM-1 [10]: D (D≤10); Imipenem MIC II E. coli NCTC13476 IMP (E. coli NCTC13476 IMP [11]): C (C≤5)
NS(=O)(=O)n1ccc(OCC2CC2)c1C(=O)O [Example 72, 3-(Cyclopropylmethoxy)-1-sulfamoyl-pyrrole-2-carboxylic acid, Sodium Salt]	3890	> 256	–
Nc1ccc(-c2ccn(S(N)(=O)=O)c2-c2nnn[nH]2)cn1 [Example 77, 3-(6-Aminopyridin-3-yl)-2-(1H-tetrazol-5-yl)-1H-pyrrole-1-sulfonamide]	506	> 256	–
Cn1cc(-c2ccn(S(N)(=O)=O)c2-c2nnn[nH]2)cn1 [Example 76, 3-(1-Methyl-1H-pyrazol-4-yl)-2-(1H-tetrazol-5-yl)-1H-pyrrole-1-sulfonamide]	1180	> 256	–
NCC(=O)N1CCC(c2ccn(S(N)(=O)=O)c2C(=O)O)CC1 [Example 62, 3-[1-(2-Aminoacetyl)-4-piperidyl]-1-sulfamoyl-pyrrole-2-carboxylic acid]	1300	> 256	–
NS(=O)(=O)n1ccc(-c2ccc(NS(=O)(=O)C3CC3)cc2)c1C(=O)O [Example 23, 3-[4-(Cyclopropylsulfonylamino)phenyl]-1-sulfamoyl-pyrrole-2-carboxylic acid]	548	> 256	–
Cn1c(N)nc2c(-c3ccn(S(N)(=O)=O)c3C(=O)O)cccc21 [Example 46, 3-(2-Amino-1-methyl-benzimidazol-4-yl)-1-sulfamoyl-pyrrole-2-carboxylic acid hydrochloride]	2790	> 256	–
Nc1ccc(-c2ccn(S(N)(=O)=O)c2C(=O)O)cn1 [Example 1, 3-(6-Aminopyridin-3-yl)-1-sulfamoyl-1H-pyrrole-2-carboxylic acid]	826	> 256	–
Nc1ncc(-c2ccn(S(N)(=O)=O)c2C(=O)O)cc1F [Example 21, 3-(6-Amino-5-fluoro-3-pyridyl)-1-sulfamoyl-pyrrole-2-carboxylic acid]	3360	> 256	–
Nc1cncc(-c2ccn(S(N)(=O)=O)c2C(=O)O)c1 [Example 22, 3-(5-Amino-3-pyridyl)-1-sulfamoyl-pyrrole-2-carboxylic acid]	2090	> 256	–

More lines, main results first:

IC50 (NDM-1) [nM]	Structure (SMILES)	CC50 at 24 h [12] [µg/mL]	other results
1530	NS(=O)(=O)n1ccc(-c2cccc(F)c2)c1C(=O)O [Example 19, 3-(3-Fluorophenyl)-1-sulfamoyl-pyrrole-2-carboxylic acid]	> 256	–
1010	NCCNS(=O)(=O)c1ccc(-c2ccn(S(N)(=O)=O)c2C(=O)O)cc1 [Example 36, 3-{4-[(2-Aminoethyl)sulfamoyl]phenyl}-1-sulfamoyl-1H-pyrrole-2-carboxylic acid]	> 256	–
479	Cc1ccc(-c2ccn(S(N)(=O)=O)c2C(=O)O)cc1 [Example 2, 3-(p-tolyl)-1-sulfamoyl-1H-pyrrole-2-carboxylic acid, sodium salt]	> 128	–
2690	NS(=O)(=O)n1ccc(-c2ccc(=O)[nH]c2)c1C(=O)O [Example 52, 3-(6-Oxo-1,6-dihydropyridin-3-yl)-1-sulfamoyl-1H-pyrrole-2-carboxylic acid, Sodium Salt]	> 256	–
448	NS(=O)(=O)n1ccc(-c2cccnc2)c1C(=O)O [Example 8, 3-(Pyridin-3-yl)-1-sulfamoyl-1H-pyrrole-2-carboxylic acid, sodium salt]	> 256	–
4120	NS(=O)(=O)n1ccc(-c2cccc3ncccc23)c1C(=O)O [Example 11, 3-(5-Quinolyl)-1-sulfamoyl-pyrrole-2-carboxylic acid, sodium salt]	> 256	–
